Measurements reported in PubChem BioAssay AID1900 (Broad Institute, 2009).
Several values for one entry are separate records, joined by “and”; a condition that tells them apart may be missing. Equal values may be shown once.

Test system: SK(-)GAS Streptococcus pyogenes + kanamycin, BacTiterGlo viability, 6 h
Assay: growth inhibition of control SK(-) GAS strain, dose response, counter-screen for streptokinase expression inhibitor project, luminescence, kanamycin, BacTiterGlo, confirmation (AID 1900)

| Structure (SMILES) | EC50 |
| --- | --- |
| CN(C)c1ccnc2c[cH-]cc12.[Fe].c1ccc(-[c-]2[c-](-c3ccccc3)[c-](-c3ccccc3)[c-](-c3ccccc3)[c-]2-c2ccccc2)cc1 (configuration not stated) | 989 nM and 334 nM |
| CNC(CC(C)C)C(=O)NC1C(=O)NC(CC(N)=O)C(=O)NC2C(=O)NC3C(=O)NC(C(=O)NC(C(=O)O)c4cc(O)cc(O)c4-c4cc3ccc4O)C(O)c3ccc(c(Cl)c3)Oc3cc2cc(c3OC2OC(CO)C(O)C(O)C2OC2CC(C)(N)C(O)C(C)O2)Oc2ccc(cc2Cl)C1O (configuration not stated) | 211 nM |
